# Laboratory results: patent publication US10808235B2, “Beta-glucosidase and uses thereof” (priority 2015, dated 2020)
# How the values were obtained:
# Assay type in all cases: biochemical
# [1] = target: T1, Rasamsonia emersonii beta-glucosidase, wild-type, SEQ ID NO: 2 (Rasamsonia emersonii, UniProt Q8TGI8); test: Glucose inhibition of initial rate of cellobiose hydrolysis, 100 ml scale (HPLC), wild type; conditions: 20 g/l glucose, 30 mM cellobiose, pH 4.5, 62° C., 4.5 μg/ml enzyme; read-out: Ratio (V0 in presence of glucose/V0 in absence of glucose)
# T1 sequence (Q8TGI8 20-857): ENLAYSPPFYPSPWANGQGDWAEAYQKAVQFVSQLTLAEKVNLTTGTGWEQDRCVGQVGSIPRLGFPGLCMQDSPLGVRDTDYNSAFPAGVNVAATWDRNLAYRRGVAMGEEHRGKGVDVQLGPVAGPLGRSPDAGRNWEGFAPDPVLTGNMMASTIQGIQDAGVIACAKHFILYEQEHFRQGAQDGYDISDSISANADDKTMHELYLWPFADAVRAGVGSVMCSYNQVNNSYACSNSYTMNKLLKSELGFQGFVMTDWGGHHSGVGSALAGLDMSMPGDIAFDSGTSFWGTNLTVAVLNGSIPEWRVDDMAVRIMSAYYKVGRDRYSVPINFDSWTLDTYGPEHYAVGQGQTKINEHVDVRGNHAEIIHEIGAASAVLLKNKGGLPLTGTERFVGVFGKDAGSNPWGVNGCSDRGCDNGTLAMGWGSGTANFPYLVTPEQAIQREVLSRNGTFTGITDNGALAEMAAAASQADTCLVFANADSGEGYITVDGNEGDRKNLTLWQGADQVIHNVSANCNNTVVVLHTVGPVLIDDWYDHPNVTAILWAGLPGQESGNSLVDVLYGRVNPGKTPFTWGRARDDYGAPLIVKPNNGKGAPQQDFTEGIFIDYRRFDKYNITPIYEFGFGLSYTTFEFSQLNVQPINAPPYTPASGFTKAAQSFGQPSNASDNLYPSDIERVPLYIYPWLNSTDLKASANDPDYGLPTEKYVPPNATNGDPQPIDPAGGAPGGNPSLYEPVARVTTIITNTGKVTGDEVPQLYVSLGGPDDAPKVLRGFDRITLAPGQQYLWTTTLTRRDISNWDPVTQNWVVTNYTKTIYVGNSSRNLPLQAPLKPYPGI
# Procedure: The hits selected from the MTP scale assay were subsequently further characterized by monitoring cellobiose conversion at multiple time points at a larger scale. The beta-glucosidase having the amino acid sequence of SEQ ID NO: 2 was used as reference (parent/wild-type beta-glucosidase). The assay was done as follows: the variant polypeptides and the reference beta-glucosidase were incubated at a concentration of 4.5 μg/ml in a 100 mM NaAc-buffer pH 4.5 with 30 mM cellobiose in a final volume of 100 ml for 2 hours at 62° C. under continuous stirring. […] The glucose and cellobiose content of the samples was determined using a High-Performance Liquid Chromatography System (Agilent 1100) equipped with a refection index detector (Agilent 1260 Infinity). […] The glucose and cellobiose were identified and quantified according to the retention time, which was compared to the external glucose and cellobiose standards ranging from 0.2; 0.4; 1.0; 2.0 g/l.
# The concentration cellobiose was plotted against time and the linear part of this curve (the linear part of the cellobiose hydrolysis) was used to calculate the V0 (the initial rate of cellobiose hydrolysis) in the presence and absence of 20 g/l glucose. The ratio of these two calculated rates (V0 in presence of glucose/V0 in absence of glucose) was calculated for the wild-type beta-glucosidase and the variant polypeptides and is listed in Table 2. […]
# [2] = target: T1, Rasamsonia emersonii beta-glucosidase, wild-type, SEQ ID NO: 2; test: Kinetics of cellobiose hydrolysis with and without 20 g/l glucose (NMR, MTP scale, model fit), wild type; conditions: 10 g/l cellobiose, pH 4.5, 65° C., 20 min; Km set to 0.1 g/L
# Procedure: (§1) For the follow-up experiment, five dilutions were made: 2-fold, 4-fold, 8-fold, 16-fold and 32-fold. The beta-glucosidase activity of the variant polypeptides and the wild-type beta-glucosidase was further analyzed in a MTP scale activity assay using cellobiose as substrate and monitoring cellobiose hydrolysis via glucose formation with NMR of the undiluted sample and the five dilutions. The same assay was performed for all dilutions in presence of 20 g/l glucose to determine the glucose tolerance. […] Subsequently, cellobiose and glucose levels in the samples were analyzed with NMR.
# (§2) After enzymatic incubation, 100 μl of internal standard solution containing 20 g/I maleic acid and EDTA (40 g/L) in demineralized water, was added to each sample. […] 1D ^1H NMR spectra were recorded on a Bruker Avance III HD 500 MHz, equipped with a He cooled cryo-probe, using a pulse program without water suppression at a temperature of 29° C. with a 90 degrees excitation pulse, acquisition time of 2.7 s and relaxation delay of 30 s. The analyte concentrations (in g/L) were calculated based on the following signals (δ relative to DSS): Cellobiose: H1′ cellobiose peak at 4.50 ppm (d, 1H, J=8 Hz); Glucose: α-H1 glucose/α-H1 cellobiose peak at 5.22 ppm (d, 0.38 H, J=4 Hz). The glucose concentration was determined after correction for cellobiose. […]
# [3] = target: Rasamsonia emersonii beta-glucosidase variant polypeptide 1 (SEQ ID NO: 2 with substitutions M90L + M335V + M485I) (Rasamsonia emersonii, UniProt Q8TGI8, M335V/M485I/M90L); test: Kinetics of cellobiose hydrolysis with and without 20 g/l glucose (NMR, MTP scale, model fit), variant polypeptide 1; conditions: 10 g/l cellobiose, pH 4.5, 65° C., 20 min; Km set to 0.1 g/L
# Procedure: as §1, §2
# [4] = target: Rasamsonia emersonii beta-glucosidase variant polypeptide 2 (SEQ ID NO: 2 with substitution N103A) (Rasamsonia emersonii, UniProt Q8TGI8, N103A); test: Kinetics of cellobiose hydrolysis with and without 20 g/l glucose (NMR, MTP scale, model fit), variant polypeptide 2; conditions: 10 g/l cellobiose, pH 4.5, 65° C., 20 min; Km set to 0.1 g/L
# Procedure: as §1, §2
# [5] = target: Rasamsonia emersonii beta-glucosidase variant polypeptide 3 (SEQ ID NO: 2 with substitution G142S) (Rasamsonia emersonii, UniProt Q8TGI8, G142S); test: Kinetics of cellobiose hydrolysis with and without 20 g/l glucose (NMR, MTP scale, model fit), variant polypeptide 3; conditions: 10 g/l cellobiose, pH 4.5, 65° C., 20 min; Km set to 0.1 g/L
# Procedure: as §1, §2
# [6] = target: Rasamsonia emersonii beta-glucosidase variant polypeptide 4 (SEQ ID NO: 2 with substitution L606A) (Rasamsonia emersonii, UniProt Q8TGI8, L606A); test: Kinetics of cellobiose hydrolysis with and without 20 g/l glucose (NMR, MTP scale, model fit), variant polypeptide 4; conditions: 10 g/l cellobiose, pH 4.5, 65° C., 20 min; Km set to 0.1 g/L
# Procedure: as §1, §2
# Chain of Rasamsonia emersonii beta-glucosidase variant polypeptide 3 (SEQ ID NO: 2 with substitution G142S) (Q8TGI8 entry or part of it G142S): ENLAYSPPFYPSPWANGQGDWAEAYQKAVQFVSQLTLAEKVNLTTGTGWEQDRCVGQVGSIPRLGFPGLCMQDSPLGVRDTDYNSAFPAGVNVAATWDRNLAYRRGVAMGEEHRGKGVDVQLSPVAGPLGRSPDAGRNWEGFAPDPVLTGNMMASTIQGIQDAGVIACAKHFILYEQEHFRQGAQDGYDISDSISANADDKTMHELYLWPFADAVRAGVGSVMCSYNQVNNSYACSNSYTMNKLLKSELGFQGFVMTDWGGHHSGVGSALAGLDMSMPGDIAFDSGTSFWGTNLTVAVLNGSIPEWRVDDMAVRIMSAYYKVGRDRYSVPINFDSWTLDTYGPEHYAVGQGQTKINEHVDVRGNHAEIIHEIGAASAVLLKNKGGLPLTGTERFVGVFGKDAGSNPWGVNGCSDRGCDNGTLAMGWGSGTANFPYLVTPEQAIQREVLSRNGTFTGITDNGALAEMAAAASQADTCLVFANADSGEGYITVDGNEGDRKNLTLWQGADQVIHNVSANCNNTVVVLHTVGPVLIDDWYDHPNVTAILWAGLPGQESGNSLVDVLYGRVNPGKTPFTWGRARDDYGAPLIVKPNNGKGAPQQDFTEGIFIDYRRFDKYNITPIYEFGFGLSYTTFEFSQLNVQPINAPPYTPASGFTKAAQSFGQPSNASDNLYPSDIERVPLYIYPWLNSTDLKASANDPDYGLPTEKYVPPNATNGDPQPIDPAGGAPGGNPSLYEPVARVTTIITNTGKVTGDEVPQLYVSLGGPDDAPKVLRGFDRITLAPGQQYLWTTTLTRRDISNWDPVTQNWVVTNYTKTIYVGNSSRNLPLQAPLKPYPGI
# Chain of Rasamsonia emersonii beta-glucosidase variant polypeptide 1 (SEQ ID NO: 2 with substitutions M90L + M335V + M485I) (Q8TGI8 entry or part of it M90L/M335V/M485I): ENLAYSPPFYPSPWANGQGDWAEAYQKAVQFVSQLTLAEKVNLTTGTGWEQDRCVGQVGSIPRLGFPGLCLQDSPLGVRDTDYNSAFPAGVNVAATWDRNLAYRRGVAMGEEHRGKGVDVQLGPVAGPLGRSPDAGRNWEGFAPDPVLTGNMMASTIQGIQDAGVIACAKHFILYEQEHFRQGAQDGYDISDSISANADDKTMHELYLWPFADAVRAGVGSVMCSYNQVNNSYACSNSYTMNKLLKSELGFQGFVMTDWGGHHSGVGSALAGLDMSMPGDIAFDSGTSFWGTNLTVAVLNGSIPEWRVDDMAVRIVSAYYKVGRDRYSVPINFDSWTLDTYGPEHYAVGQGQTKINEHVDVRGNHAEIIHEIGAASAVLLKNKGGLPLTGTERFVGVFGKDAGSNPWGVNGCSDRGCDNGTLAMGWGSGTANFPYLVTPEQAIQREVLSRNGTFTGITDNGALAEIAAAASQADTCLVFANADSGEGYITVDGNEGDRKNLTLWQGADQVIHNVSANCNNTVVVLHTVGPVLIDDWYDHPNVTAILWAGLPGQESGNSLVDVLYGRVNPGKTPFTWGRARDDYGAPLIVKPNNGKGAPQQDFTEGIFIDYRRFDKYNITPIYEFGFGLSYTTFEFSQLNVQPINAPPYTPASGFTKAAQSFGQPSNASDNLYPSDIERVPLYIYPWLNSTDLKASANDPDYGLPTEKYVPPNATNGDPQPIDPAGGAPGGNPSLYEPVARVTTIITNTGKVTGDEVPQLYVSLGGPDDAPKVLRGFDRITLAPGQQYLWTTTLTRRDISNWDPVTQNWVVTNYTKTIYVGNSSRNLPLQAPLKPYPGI
# Chain of Rasamsonia emersonii beta-glucosidase variant polypeptide 4 (SEQ ID NO: 2 with substitution L606A) (Q8TGI8 entry or part of it L606A): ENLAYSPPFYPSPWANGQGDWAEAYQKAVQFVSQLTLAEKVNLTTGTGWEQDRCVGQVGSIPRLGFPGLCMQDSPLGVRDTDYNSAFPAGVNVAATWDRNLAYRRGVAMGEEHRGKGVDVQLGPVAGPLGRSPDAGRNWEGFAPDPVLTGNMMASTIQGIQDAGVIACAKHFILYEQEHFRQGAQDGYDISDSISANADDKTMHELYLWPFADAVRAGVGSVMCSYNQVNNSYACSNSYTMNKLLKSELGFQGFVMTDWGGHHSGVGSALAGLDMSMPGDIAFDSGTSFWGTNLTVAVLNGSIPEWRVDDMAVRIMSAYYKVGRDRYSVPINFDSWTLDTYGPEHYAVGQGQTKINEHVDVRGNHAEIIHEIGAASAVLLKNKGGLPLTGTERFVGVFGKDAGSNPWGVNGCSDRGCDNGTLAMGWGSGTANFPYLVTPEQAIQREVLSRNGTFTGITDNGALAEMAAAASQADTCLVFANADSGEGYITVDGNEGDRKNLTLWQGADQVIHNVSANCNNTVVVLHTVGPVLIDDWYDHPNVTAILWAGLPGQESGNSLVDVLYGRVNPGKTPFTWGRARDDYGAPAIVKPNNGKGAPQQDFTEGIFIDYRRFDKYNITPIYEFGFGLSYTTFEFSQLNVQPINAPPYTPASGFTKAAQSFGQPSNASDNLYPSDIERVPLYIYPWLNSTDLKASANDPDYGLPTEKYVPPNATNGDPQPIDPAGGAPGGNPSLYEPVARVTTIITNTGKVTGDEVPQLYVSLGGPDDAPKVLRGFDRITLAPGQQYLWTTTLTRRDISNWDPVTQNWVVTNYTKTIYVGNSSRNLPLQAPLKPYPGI
# Chain of Rasamsonia emersonii beta-glucosidase variant polypeptide 2 (SEQ ID NO: 2 with substitution N103A) (Q8TGI8 entry or part of it N103A): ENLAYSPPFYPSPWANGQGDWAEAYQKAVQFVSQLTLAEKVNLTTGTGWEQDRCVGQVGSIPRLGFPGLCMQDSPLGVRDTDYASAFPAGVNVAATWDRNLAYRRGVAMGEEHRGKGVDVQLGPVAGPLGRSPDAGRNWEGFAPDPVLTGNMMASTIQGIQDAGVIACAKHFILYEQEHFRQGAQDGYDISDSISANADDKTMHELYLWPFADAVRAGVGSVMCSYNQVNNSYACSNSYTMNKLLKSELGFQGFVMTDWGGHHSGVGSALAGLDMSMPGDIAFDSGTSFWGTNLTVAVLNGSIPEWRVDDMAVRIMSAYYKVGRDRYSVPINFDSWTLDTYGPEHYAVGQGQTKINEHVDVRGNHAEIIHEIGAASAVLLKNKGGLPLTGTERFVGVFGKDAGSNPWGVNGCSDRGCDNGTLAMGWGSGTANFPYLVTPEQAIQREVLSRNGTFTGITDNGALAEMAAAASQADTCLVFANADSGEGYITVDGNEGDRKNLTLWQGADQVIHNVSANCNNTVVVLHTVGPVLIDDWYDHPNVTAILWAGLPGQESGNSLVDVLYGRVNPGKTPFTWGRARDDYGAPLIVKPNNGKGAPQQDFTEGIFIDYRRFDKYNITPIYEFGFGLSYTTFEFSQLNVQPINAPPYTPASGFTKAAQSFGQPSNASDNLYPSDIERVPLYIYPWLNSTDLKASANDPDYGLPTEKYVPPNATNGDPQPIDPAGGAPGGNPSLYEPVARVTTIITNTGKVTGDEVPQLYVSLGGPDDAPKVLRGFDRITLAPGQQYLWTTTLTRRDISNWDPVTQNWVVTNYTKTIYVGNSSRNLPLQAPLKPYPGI
Compound,activity at 20000 µg/mL [1] [%],"kcat (cellobiose), model prediction [2] [unitless]","kcat (cellobiose), model prediction [3] [unitless]","kcat (cellobiose), model prediction [4] [unitless]","kcat (cellobiose), model prediction [5] [unitless]","kcat (cellobiose), model prediction [6] [unitless]"
OC[C@H]1OC(O)[C@H](O)[C@@H](O)[C@@H]1O (stereo partly drawn) [glucose],18,,,,,
OC[C@H]1O[C@@H](O[C@H]2[C@H](O)[C@@H](O)C(O)O[C@@H]2CO)[C@H](O)[C@@H](O)[C@@H]1O (stereo partly drawn) [cellobiose],,1.0,0.9,1.1,0.8,2.7
